In patent publication US20250176599A1, “FLAVOR COMPOSITION AND FOOD AND BEVERAGE” (TAKASAGO INTERNATIONAL CORPORATION, priority 2021, published 2025):

Legend:
[1] = Overall conclusion of the sensory evaluation across soymilks I and II
Protocol: (§1) To commercially available soymilk (“Delicious Unadjusted Soymilk” manufactured by Kikkoman Corporation), each degradation component was added to prepare degradation component-added soymilks at the concentrations listed in Table 23. To these degradation component-added soymilks, 1,4-dioxacycloheptadecan-5,17-dione was added at the concentrations listed in Table 23 to confirm the intensity of the off-flavor (masking effect) and the intensity of the masking components (impact on the flavor of the soymilk itself) for each sample.
Eight experienced panelists were selected to conduct a sensory evaluation similar to that of Example 1.
The same method as in Example 20 was used to confirm the intensity of the off-flavor (masking effect) derived from unsaturated fatty acids by α-methyl ionone and the intensity of the masking components (impact on the flavor of the soymilk itself).
The same method as in Example 20 was used to confirm the intensity of the off-flavor (masking effect) derived from unsaturated fatty acids by menthyl 3-hydroxybutyrate and the intensity of the masking components (impact on the flavor of the soymilk itself).

[2] = Sensory evaluation of aqueous solution I containing (E)-2-nonenal 1 ppb: off-flavor intensity and masking component intensity; conditions: (E)-2-nonenal 1 ppb, average score 0-4
Procedure, shortened: (§2)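 8 trained panelists; degradant in ion-exchanged water + nootkatone. Off-flavor 0–4, relative (no masker = 4, water = 0); masker flavor 0–4, absolute.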

[3] = Sensory evaluation of aqueous solution II containing (E)-2-octenal 10 ppb: off-flavor intensity and masking component intensity; conditions: (E)-2-octenal 10 ppb, average score 0-4
Procedure, shortened: as §2

[4] = Sensory evaluation of aqueous solution VI containing 1,5-octadien-3-ol 10 ppb: off-flavor intensity and masking component intensity; conditions: aqueous solution VI, 1,5-octadien-3-ol 10 ppb, average score 0-4
Procedure, shortened: as §2

[5] = Sensory evaluation of aqueous solution III containing 1-octen-3-one 1 ppb: off-flavor intensity and masking component intensity; conditions: 1-octen-3-one 1 ppb, average score 0-4
Procedure, shortened: as §2

[6] = Sensory evaluation of degradation component-added soymilk II (1-octen-3-ol 500 ppb); conditions: average panel score
Protocol: as §1
(§3) Eight experienced panelists were selected to conduct a sensory evaluation similar to that of Example 1. […]

[7] = Sensory evaluation of aqueous solution V containing 1-octen-3-ol 10 ppb: off-flavor intensity and masking component intensity; conditions: 1-octen-3-ol 10 ppb, average score 0-4
Procedure, shortened: as §2

[8] = Sensory evaluation of aqueous solution IV containing 1,5-octadien-3-one 100 ppt: off-flavor intensity and masking component intensity; conditions: aqueous solution IV, 1,5-octadien-3-one 100 ppt, average score 0-4
Procedure, shortened: as §2

[9] = Sensory evaluation of degradation component-added soymilk I ((E)-2-nonenal 5 ppb); conditions: average panel score
Protocol: as §1, §3

[10] = Overall conclusion of the sensory evaluation across aqueous solutions I to VI
Procedure, shortened: as §2

Structure (SMILES): O=C1CCCCCCCCCCCC(=O)OCCO1 [1,4-Dioxacycloheptadecan-5,17-Dione, 1,4-dioxacycloheptadecan-5,17-dione]
- concentration that masks the off-flavor and does not affect the flavor of the soymilk itself, lower limit [1]: ≥ 10 ppt
- concentration that masks the off-flavor and does not affect the flavor of the soymilk itself, upper limit [1]: ≤ 1 ppm
- Off-Flavor Intensity ([2]; 0.001 ppt added): 3.5 points
- Off-Flavor Intensity ([2]; 0.01 ppt added): 3.3 points
- Off-Flavor Intensity ([2]; 0.1 ppt added): 2.9 points
- Off-Flavor Intensity ([2]; 1 ppb added): 1.6 points
- Off-Flavor Intensity ([2]; 1 ppt added): 2.8 points
- Off-Flavor Intensity ([2]; 10 ppb added): 1.0 points
- Off-Flavor Intensity ([2]; 10 ppt added): 2.3 points
- Off-Flavor Intensity ([2]; 100 ppb added): 0.3 points
- Off-Flavor Intensity ([2]; 100 ppt added): 2.0 points
- Off-Flavor Intensity ([3]; 0.001 ppt added): 3.4 points
- Off-Flavor Intensity ([3]; 0.01 ppt added): 3.4 points
- Off-Flavor Intensity ([3]; 0.1 ppt added): 3.1 points
- Off-Flavor Intensity ([3]; 1 ppb added): 1.8 points
- Off-Flavor Intensity ([3]; 1 ppt added): 2.8 points
- Off-Flavor Intensity ([3]; 10 ppb added): 1.5 points
- Off-Flavor Intensity ([3]; 10 ppt added): 2.4 points
- Off-Flavor Intensity ([3]; 100 ppb added): 0.6 points
- Off-Flavor Intensity ([3]; 100 ppt added): 2.0 points
- Off-Flavor Intensity ([4]; 0.001 ppt added): 3.3 points
- Off-Flavor Intensity ([4]; 0.01 ppt added): 3.0 points
- Off-Flavor Intensity ([4]; 0.1 ppt added): 2.9 points
- Off-Flavor Intensity ([4]; 1 ppb added): 1.8 points
- Off-Flavor Intensity ([4]; 1 ppt added): 2.5 points
- Off-Flavor Intensity ([4]; 10 ppb added): 1.4 points
- Off-Flavor Intensity ([4]; 10 ppt added): 2.5 points
- Off-Flavor Intensity ([4]; 100 ppb added): 0.9 points
- Off-Flavor Intensity ([4]; 100 ppt added): 2.1 points
- Off-Flavor Intensity ([5]; 0.001 ppt added): 3.6 points
- Off-Flavor Intensity ([5]; 0.01 ppt added): 3.4 points
- Off-Flavor Intensity ([5]; 0.1 ppt added): 3.0 points
- Off-Flavor Intensity ([5]; 1 ppb added): 1.4 points
- Off-Flavor Intensity ([5]; 1 ppt added): 2.6 points
- Off-Flavor Intensity ([5]; 10 ppb added): 1.0 points
- Off-Flavor Intensity ([5]; 10 ppt added): 2.4 points
- Off-Flavor Intensity ([5]; 100 ppb added): 0.3 points
- Off-Flavor Intensity ([5]; 100 ppt added): 1.8 points
- Masking Component Intensity ([6]; 1 ppb added): 0.9
- Off-Flavor Intensity ([6]; 1 ppb added): 1.8
- Masking Component Intensity ([6]; 1 ppm added): 2.8
- Off-Flavor Intensity ([6]; 1 ppm added): 0.5
- Masking Component Intensity ([6]; 10 ppb added): 1.3
- Off-Flavor Intensity ([6]; 10 ppb added): 1.3
- Masking Component Intensity ([6]; 10 ppt added): 0.4
- Off-Flavor Intensity ([6]; 10 ppt added): 2.5
- Masking Component Intensity ([6]; 100 ppb added): 2.1
- Off-Flavor Intensity ([6]; 100 ppb added): 1.0
- Masking Component Intensity ([6]; 100 ppt added): 0.5
- Off-Flavor Intensity ([6]; 100 ppt added): 2.0
- Off-Flavor Intensity ([7]; 0.001 ppt added): 3.4 points
- Off-Flavor Intensity ([7]; 0.01 ppt added): 3.1 points
- Off-Flavor Intensity ([7]; 0.1 ppt added): 2.9 points
- Off-Flavor Intensity ([7]; 1 ppb added): 1.9 points
- Off-Flavor Intensity ([7]; 1 ppt added): 2.8 points
- Off-Flavor Intensity ([7]; 10 ppb added): 1.4 points
- Off-Flavor Intensity ([7]; 10 ppt added): 2.5 points
- Off-Flavor Intensity ([7]; 100 ppb added): 0.5 points
- Off-Flavor Intensity ([7]; 100 ppt added): 2.1 points
- Off-Flavor Intensity ([8]; 0.001 ppt added): 3.8 points
- Off-Flavor Intensity ([8]; 0.01 ppt added): 3.5 points
- Off-Flavor Intensity ([8]; 0.1 ppt added): 3.4 points
- Off-Flavor Intensity ([8]; 1 ppb added): 2.1 points
- Off-Flavor Intensity ([8]; 1 ppt added): 3.0 points
- Off-Flavor Intensity ([8]; 10 ppb added): 1.6 points
- Off-Flavor Intensity ([8]; 10 ppt added): 2.9 points
- Off-Flavor Intensity ([8]; 100 ppb added): 1.0 points
- Off-Flavor Intensity ([8]; 100 ppt added): 2.8 points
- Masking Component Intensity ([9]; 1 ppb added): 0.3
- Off-Flavor Intensity ([9]; 1 ppb added): 2.3
- Masking Component Intensity ([9]; 1 ppm added): 2.6
- Off-Flavor Intensity ([9]; 1 ppm added): 0.6
- Masking Component Intensity ([9]; 10 ppb added): 1.0
- Off-Flavor Intensity ([9]; 10 ppb added): 1.8
- Masking Component Intensity ([9]; 10 ppt added): 0.0
- Off-Flavor Intensity ([9]; 10 ppt added): 3.0
- Masking Component Intensity ([9]; 100 ppb added): 1.9
- Off-Flavor Intensity ([9]; 100 ppb added): 1.0
- Masking Component Intensity ([9]; 100 ppt added): 0.0
- Off-Flavor Intensity ([9]; 100 ppt added): 2.9
- concentration that masks the off-flavor and does not affect the flavor of the food and/or beverage itself, lower limit [10]: ≥ 0.01 ppt
- concentration that masks the off-flavor and does not affect the flavor of the food and/or beverage itself, upper limit [10]: ≤ 10 ppb

Structure (SMILES): CC(=O)/C=C/C1=C(C)CCCC1(C)C [β-Ionone, β-ionone]
- Off-Flavor Intensity ([2]; 0.01 ppt added): 3.4 points
- Off-Flavor Intensity ([2]; 0.1 ppt added): 3.1 points
- Off-Flavor Intensity ([2]; 1 ppb added): 1.8 points
- Off-Flavor Intensity ([2]; 1 ppm added): 0.5 points
- Off-Flavor Intensity ([2]; 1 ppt added): 2.6 points
- Off-Flavor Intensity ([2]; 10 ppb added): 1.4 points
- Off-Flavor Intensity ([2]; 10 ppt added): 2.6 points
- Off-Flavor Intensity ([2]; 100 ppb added): 0.8 points
- Off-Flavor Intensity ([2]; 100 ppt added): 2.3 points
- Off-Flavor Intensity ([3]; 0.01 ppt added): 3.1 points
- Off-Flavor Intensity ([3]; 0.1 ppt added): 3.0 points
- Off-Flavor Intensity ([3]; 1 ppb added): 1.6 points
- Off-Flavor Intensity ([3]; 1 ppm added): 0.1 points
- Off-Flavor Intensity ([3]; 1 ppt added): 2.6 points
- Off-Flavor Intensity ([3]; 10 ppb added): 1.4 points
- Off-Flavor Intensity ([3]; 10 ppt added): 2.3 points
- Off-Flavor Intensity ([3]; 100 ppb added): 0.8 points
- Off-Flavor Intensity ([3]; 100 ppt added): 2.0 points
- Off-Flavor Intensity ([4]; 0.01 ppt added): 3.3 points
- Off-Flavor Intensity ([4]; 0.1 ppt added): 2.9 points
- Off-Flavor Intensity ([4]; 1 ppb added): 1.8 points
- Off-Flavor Intensity ([4]; 1 ppm added): 0.4 points
- Off-Flavor Intensity ([4]; 1 ppt added): 2.6 points
- Off-Flavor Intensity ([4]; 10 ppb added): 1.5 points
- Off-Flavor Intensity ([4]; 10 ppt added): 2.3 points
- Off-Flavor Intensity ([4]; 100 ppb added): 0.8 points
- Off-Flavor Intensity ([4]; 100 ppt added): 2.1 points
- Off-Flavor Intensity ([5]; 0.01 ppt added): 3.5 points
- Off-Flavor Intensity ([5]; 0.1 ppt added): 3.3 points
- Off-Flavor Intensity ([5]; 1 ppb added): 2.0 points
- Off-Flavor Intensity ([5]; 1 ppm added): 0.8 points
- Off-Flavor Intensity ([5]; 1 ppt added): 3.0 points
- Off-Flavor Intensity ([5]; 10 ppb added): 1.6 points
- Off-Flavor Intensity ([5]; 10 ppt added): 2.8 points
- Off-Flavor Intensity ([5]; 100 ppb added): 1.4 points
- Off-Flavor Intensity ([5]; 100 ppt added): 2.5 points
- Off-Flavor Intensity ([7]; 0.01 ppt added): 3.3 points
- Off-Flavor Intensity ([7]; 0.1 ppt added): 3.0 points
- Off-Flavor Intensity ([7]; 1 ppb added): 1.8 points
- Off-Flavor Intensity ([7]; 1 ppm added): 0.3 points
- Off-Flavor Intensity ([7]; 1 ppt added): 2.5 points
- Off-Flavor Intensity ([7]; 10 ppb added): 1.4 points
- Off-Flavor Intensity ([7]; 10 ppt added): 2.5 points
- Off-Flavor Intensity ([7]; 100 ppb added): 0.8 points
- Off-Flavor Intensity ([7]; 100 ppt added): 2.3 points
- Off-Flavor Intensity ([8]; 0.01 ppt added): 3.8 points
- Off-Flavor Intensity ([8]; 0.1 ppt added): 3.5 points
- Off-Flavor Intensity ([8]; 1 ppb added): 2.5 points
- Off-Flavor Intensity ([8]; 1 ppm added): 1.0 points
- Off-Flavor Intensity ([8]; 1 ppt added): 3.5 points
- Off-Flavor Intensity ([8]; 10 ppb added): 2.3 points
- Off-Flavor Intensity ([8]; 10 ppt added): 3.4 points
- Off-Flavor Intensity ([8]; 100 ppb added): 1.6 points
- Off-Flavor Intensity ([8]; 100 ppt added): 3.0 points
- concentration that masks the off-flavor and does not affect the flavor of the food and/or beverage itself, lower limit [10]: ≥ 0.1 ppt
- concentration that masks the off-flavor and does not affect the flavor of the food and/or beverage itself, upper limit [10]: ≤ 100 ppb
